Patent US10800784B2, “Nitrogen-containing heterocyclic amide compound and pharmaceutical use thereof” (Japan Tobacco Inc., priority 2018, dated 2020)

What was measured:
human PDHK1 (hPDHK1) = human PDHK1 (hPDHK1) (Homo sapiens (Human), UniProt Q15118); assay: Inhibitory action of PDHK1 activity in vitro (residual PDH activity after PDHK reaction); format: biochemical; conditions: PDH/hPDHK1 complex solution, PDHK reaction at room temperature for 45 min, NADH absorbance at 340 nm; read-out: hPDK1 IC50
Procedure: (§1) The inhibitory action of PDHK activity was assessed indirectly by measuring the residual PDH activity after PDHK reaction in the presence of a test compound.
(Inhibitory Action of PDHK1 Activity)
In the case of human PDHK1 (hPDHK1, NCBI Reference Database Accession number NM_002610.3), a 1.3 kbp fragment encoding this protein was isolated from human liver cDNA by polymerase chain reaction (PCR). Modified hPDHK1 cDNA wherein FLAG-Tag sequence was added to the N terminus was prepared by PCR and ligated to the NdeI/EcoRI site of pET-17b vector (Merck MGaA, model number 69663-3). The recombinant construct was transformed into Escherichia coli DH5a (TOYOBO, model number DNA-903). The recombinant clones were identified, and plasmid DNA was isolated and subjected to the DNA sequence analysis. One clone which had the expected nucleic acid sequence was selected for expression work.
For expression of hPDHK1 activity, Escherichia coli strain BL21(DE3) cells (Merck KGaA, model number 69450-4) were transformed with the pET17b vector containing modified hPDHK1 cDNA. The Escherichia coli were grown to an optical density 0.6 ([…]) at 30° C. Protein expression was induced by the addition of 500 μmol/L isopropyl-β-thiogalactopyranoside. The Escherichia coli were cultured at 20° C. for 17-18 hr and harvested by centrifugation.
The harvested Escherichia coli was resuspended in a suspension buffer (20 mmol/L N-(2-hydroxyethyl)piperazine-N′-2-ethanesulfonic acid-sodium hydroxide (HEPES-NaOH), 500 mmol/L sodium chloride, 1% ethylene glycol, and 0.1% polyoxyethylene-polyoxypropylene block copolymer (Pluronic F-68), complete, EDTA-free (pH 8.0)) and disrupted by a microfluidizer M-110H (MIZUHO INDUSTRIAL CO., LTD.) or ultrasonication. The precipitate was removed by centrifugation and the supernatant was added to DDDDK-tagged Protein PURIFICATION GEL (MBL, model number 3329). DDDDK-tagged Protein PURIFICATION GEL was washed with a washing buffer (20 mmol/L HEPES-NaOH, 500 mmol/L sodium chloride, 1% ethylene glycol, 0.1% pluronic F-68 (pH 8.0)) and the bound protein was eluted with elution buffer 1 (20 mmol/L HEPES-NaOH, 100 μg/mL peptide (amino acid sequence DYKDDDDK) (SEQ ID NO: 1), 500 mmol/L sodium chloride, 1% ethylene glycol, 0.1% pluronic F-68 (pH 8.0)).
The eluted fractions containing FLAG-Tagged protein were pooled, concentrated by an ultrafiltration method, added to a gel filtration column (HiLoad 26/60 Superdex 200 (GE Healthcare, model number 17-1070-01)), and eluted with elution buffer 2 (20 mmol/L HEPES-NaOH, 150 mmol/L sodium chloride, 0.5 mmol/L ethylenediaminetetraacetic acid (EDTA), 1% ethylene glycol, 0.1% pluronic F-68 (pH 8.0)). The eluted fractions were pooled and preserved at −80° C.
(§2) 0.025 U/mL PDH (porcine heart PDH complex, Sigma P7032) and 0.5 μg/mL hPDHK1 were mixed in an assay buffer (50 mmol/L 3-morpholinopropanesulfonic acid (pH 7.0), 20 mmol/L dipotassium hydrogen phosphate, 60 mmol/L potassium chloride, 2 mmol/L magnesium chloride, 0.4 mmol/L EDTA, 0.2% poloxamer, 2 mmol/L dithiothreitol), and the mixture was incubated at 4° C. overnight to obtain a PDH/hPDHK1 complex solution. In the assay buffer, 0.025 U/mL PDH was mixed and incubated at 4° C. overnight to prepare a PDH solution.
The test compounds were diluted with dimethyl sulfoxide (DMSO). To measure an inhibitory action of the test compound on the PDHK activity in the PDH/hPDHK1 complex solution, PDH/hPDHK1 complex solution (20 μL), test compound (1.5 μL) and 0.353 μmol/L ATP (diluted with assay buffer) (8.5 μL) were added to a 384 well microplate (Greiner Bio-One 781801) and PDHK reaction was performed at room temperature for 45 min (test compound well). DMSO (1.5 μL) was added to control wells instead of test compound. In addition, DMSO (1.5 μL) was added to blank wells instead of the test compound, and PDH solution was added instead of the PDH/hPDHK1 complex solution. […]

human PDHK2 (hPDHK2) = human PDHK2 (hPDHK2) (Homo sapiens (Human), UniProt Q15119); assay: Inhibitory action of PDHK2 activity in vitro (residual PDH activity after PDHK reaction); format: biochemical; conditions: PDH/hPDHK2 complex solution, PDHK reaction at room temperature for 45 min, NADH absorbance at 340 nm; read-out: kPDK2 IC50
Procedure: as §1
(Inhibitory Action of PDHK2 Activity)
In the case of human PDHK2 (hPDHK2, NCBI Reference Database Accession number NM_002611.4), modified hPDHK2 cDNA wherein FLAG-Tag sequence was added to the N terminus of hPDHK2 cDNA clone (pReceiver-M01/PDK2-GeneCopoeia) as the base was prepared by PCR and ligated to the NdeI/EcoRI site of pET-17b vector. The recombinant construct was transformed into Escherichia coli DH5a. The recombinant clones were identified, and plasmid DNA was isolated and subjected to the DNA sequence analysis. One clone which had the expected nucleic acid sequence was selected for expression work.
For expression of hPDHK2 activity, Escherichia coli strain BL21(DE3) cells were transformed with the pET17b vector containing modified hPDHK2 cDNA. The Escherichia coli were grown to an optical density 0.6 ([…]) at 30° C. Protein expression was induced by the addition of 500 μmol/L isopropyl-β-thiogalactopyranoside. The Escherichia coli were cultured at 20° C. for 17-18 hr and harvested by centrifugation. The harvested Escherichia coli was resuspended in a suspension buffer (20 mmol/L HEPES-NaOH, 500 mmol/L sodium chloride, 1% ethylene glycol, 0.1% pluronic F-68 (pH 8.0), cOmplete, EDTA-free (pH 8.0)), and disrupted by a microfluidizer. The precipitate was removed by centrifugation and the supernatant was added to DDDDK-tagged Protein PURIFICATION GEL. DDDDK-tagged Protein PURIFICATION GEL was washed with a washing buffer (20 mmol/L HEPES-NaOH, 500 mmol/L sodium chloride, 1% ethylene glycol, 0.1% pluronic F-68 (pH 8.0)) and the bound protein was eluted with elution buffer 1 (20 mmol/L HEPES-NaOH, 100 μg/mL peptide (amino acid sequence DYKDDDDK) (SEQ ID NO: 1), 500 mmol/L sodium chloride, 1% ethylene glycol, 0.1% pluronic F-68 (pH 8.0)). The eluted fractions containing FLAG-Tagged protein were pooled, concentrated by an ultrafiltration method, added to a gel filtration column (HiLoad 26/60 Superdex 200), and eluted with elution buffer 2 (20 mmol/L HEPES-NaOH, 150 mmol/L sodium chloride, 0.5 mmol/L ethylenediaminetetraacetic acid (EDTA), 1% ethylene glycol, 0.1% pluronic F-68 (pH 8.0)). The eluted fractions were pooled and preserved at −80° C.
as §2, with “PDH” for “PDH (porcine heart PDH complex, Sigma P7032)”, “hPDHK2” for “hPDHK1”, “PDH/hPDHK2” for “PDH/hPDHK1”
The test compounds were diluted with DMSO. To measure an inhibitory action of the test compound on the PDHK activity in the PDH/hPDHK2 complex solution, PDH/hPDHK2 complex solution (20 μL), test compound (1.5 μL) and 1.06 μmol/L ATP (diluted with assay buffer) (8.5 μL) were added to a 384 well microplate and PDHK reaction was performed at room temperature for 45 min (test compound well). DMSO (1.5 μL) was added to control wells instead of test compound. In addition, DMSO (1.5 μL) was added to blank wells instead of the test compound, and PDH solution was added instead of the PDH/hPDHK2 complex solution. To measure an inhibitory action of the test compound on the PDHK activity inherent in the PDH solution, a test compound was added and the PDH solution instead of the PDH/hPDHK2 complex solution was added to a blank+test compound well.
Then, 10 μL of substrates (5 mmol/L sodium pyruvate, 5 mmol/L Coenzyme A, 12 mmol/L NAD, 5 mmol/L thiamine pyrophosphate, diluted with assay buffer) were added. The mixture was incubated at room temperature for 90 min, and the residual PDH activity was measured. […]

human PDHK1 (hPDHK1), sequence (Q15118 29-436): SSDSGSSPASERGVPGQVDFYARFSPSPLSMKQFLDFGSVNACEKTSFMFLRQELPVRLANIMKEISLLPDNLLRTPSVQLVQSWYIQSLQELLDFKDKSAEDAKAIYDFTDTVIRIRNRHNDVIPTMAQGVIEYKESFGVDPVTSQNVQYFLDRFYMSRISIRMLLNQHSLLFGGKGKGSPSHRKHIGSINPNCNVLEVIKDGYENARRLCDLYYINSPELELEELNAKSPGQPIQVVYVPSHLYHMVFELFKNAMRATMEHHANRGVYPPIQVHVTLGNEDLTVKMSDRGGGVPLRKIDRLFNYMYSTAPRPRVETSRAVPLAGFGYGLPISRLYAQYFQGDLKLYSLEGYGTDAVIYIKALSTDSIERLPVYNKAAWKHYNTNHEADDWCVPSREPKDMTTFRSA

| Structure (SMILES) | IC50 (human PDHK1 (hPDHK1)) [nM] | IC50 (human PDHK2 (hPDHK2)) [nM] |
| --- | --- | --- |
| C[C@H]1CN(C(=O)c2cc(-c3ccc(C#N)cc3)ncc2F)Cc2cnc([C@@](C)(O)C(F)(F)F)n21 [Example 68, 4-(5-fluoro-4-((S)-5-methyl-3-((R)-1,1,1-trifluoro-2-hydroxypropan-2-yl)-5,6,7,8-tetrahydroimidazo[1,5-a]pyrazine-7-carbonyl)pyridin-2-yl)benzonitrile] | 4 | 6 |
| C[C@H]1CN(C(=O)c2[nH]nc(C3CC3)c2Cl)Cc2onc([C@@](C)(O)C(F)(F)F)c21 [Example 112] | 3 | 5 |
| C[C@H]1CN(C(=O)C(C)(C)c2ccc(C(=O)O)c(C3CC3)c2)Cc2onc([C@@](C)(O)C(F)(F)F)c21 [Example 116] | 17 | 32 |
| C[C@H]1CN(C(=O)c2cc(-c3ccc(C#N)cc3)n(C3CC3)n2)Cc2cnc([C@@](C)(O)C(F)(F)F)n21 [Example 53, 4-(1-cyclopropyl-3-((S)-5-methyl-3-((R)-1,1,1-trifluoro-2-hydroxypropan-2-yl)-5,6,7,8-tetrahydroimidazo[1,5-a]pyrazine-7-carbonyl)-1H-pyrazol-5-yl)benzonitrile] | 4 | 8 |
| C[C@H]1CN(C(=O)C2(C)CN(C3CC(F)(F)C3)C2)Cc2cnc([C@@](C)(O)C(F)(F)F)n21 [Example 91] | 49 | 28 |
| C[C@H]1CN(C(=O)c2ccc(F)c(-c3ccc(C#N)cn3)c2)Cc2cnc([C@@](C)(O)C(F)(F)F)n21 [Example 58] | 3 | 4 |
| C[C@H]1CN(C(=O)c2ccn(C3CC3)n2)Cc2onc([C@@](C)(O)C(F)(F)F)c21 [Example 110] | 7 | 13 |
| C[C@H]1CN(C(=O)c2c(C#N)c(C3CC3)nn2C)Cc2onc([C@@](C)(O)C(F)(F)F)c21 [Example 117] | 6 | 8 |
| C[C@H]1CN(C(=O)c2cnc(C3CC3)nc2)Cc2cnc([C@@](C)(O)C(F)(F)F)n21 [Example 94] | 40 | 24 |
| C[C@H]1CN(C(=O)c2cccc(-c3ccccn3)c2)Cc2cnc([C@@](C)(O)C(F)(F)F)n21 [Example 49] | 3 | 3 |
| C[C@H]1CN(C(=O)c2ccc3c(c2)OC(F)(F)O3)Cc2cnc([C@@](C)(O)C(F)(F)F)n21 [Example 11, (2,2-difluorobenzo[d][1,3]dioxol-5-yl)((S)-5-methyl-3-((R)-1,1,1-trifluoro-2-hydroxypropan-2-yl)-5,6-dihydroimidazo[1,5-a]pyrazin-7(8H)-yl)methanone] | 14 | 15 |
| C[C@H]1CN(C(=O)c2cncc(-c3ccc(F)cc3)c2)Cc2cnc([C@@](C)(O)C(F)(F)F)n21 [Example 80] | 3 | 6 |

More lines, in order of falling IC50 (human PDHK1 (hPDHK1)), values ahead:

| IC50 (human PDHK1 (hPDHK1)) [nM] | IC50 (human PDHK2 (hPDHK2)) [nM] | Structure (SMILES) |
| --- | --- | --- |
| 20 | 13 | C[C@H]1CN(C(=O)c2ccc(C3CC3)nc2)Cc2cnc([C@@](C)(O)C(F)(F)F)n21 [Example 30] |
| 7 | 11 | C[C@H]1CN(C(=O)c2c3cc(F)c(F)cc3nn2C)Cc2cnc([C@@](C)(O)C(F)(F)F)n21 [Example 9, (5,6-difluoro-2-methyl-2H-indazol-3-yl) ((S)-5-methyl-3-((R)-1,1,1-trifluoro-2-hydroxypropan-2-yl)-5,6-dihydroimidazo[1,5-a]pyrazin-7(8H)-yl)methanone] |
| 5 | 6 | CC(=O)N1CCc2ccccc2[C@H]1C(=O)N1Cc2onc([C@@](C)(O)C(F)(F)F)c2[C@@H](C)C1 [Example 107] |
| 5 | 7 | C[C@H]1CN(C(=O)c2ccc(F)c(-c3ccnn3C)c2)Cc2cnc([C@@](C)(O)C(F)(F)F)n21 [Example 64] |
| 4 | 5 | C[C@H]1CN(C(=O)c2cc(C3(C)CC3)n(C)n2)Cc2onc([C@@](C)(O)C(F)(F)F)c21 [Example 119] |
| 4 | 4 | C[C@H]1CN(C(=O)c2cccc3[nH]ncc23)Cc2onc([C@@](C)(O)C(F)(F)F)c21 [Example 102] |
